Assay results published in patent US20120189558A1, “ANTI-BACTERIAL COMPOSITIONS COMPRISING EXTRACTS OF EREMOPHILA LONGIFOLIA AND METHODS FOR USE OF SAME” (priority 2009, published 2012).
In brackets after ≈: the same amount, converted by molar mass. Blank lines part the entries; values can stand above or below the compound they belong to.

Columns and labels:
S. sobrinus (6715-247) = assay: Plate-hole and disk diffusion assays; assay type: cell-based, Streptococcus sobrinus; settings: 2 mg/ml positive control, mean +/- SD of three plate-hole and three disk diffusion assays
Protocol: (§1) Plate-hole diffusion assays were used to test for antibacterial activity (Palombo and Semple, 2001). A pure colony of each culture was grown in BHI broth and 200 μL were added to 15 ml of molten BHI agar. The inoculated agar was gently mixed and transferred to a sterile petri dish. Once set and dried, a sterilised core-borer (6 mm diameter) was used to make wells in the agar, and 10 μL of plant extract were added into each well. One well on each plate was filled with neat solvent as a control. Disk diffusion assays were also used to test for antibacterial activity (Pennacchio et al., 2005). 10 μL of each extract and control were placed on sterile paper disks (6 mm diameter, Oxoid) and allowed to dry for 25 minutes. 100 μL of each overnight (ON) culture was spread on BHI agar and allowed to dry for 10 minutes. Disks were transferred to the agar surface. Both plate-hole and disk diffusion assays were incubated overnight at 37° C. in candle jars and were carried out in triplicate.

S. mutans biofilm = assay: S. mutans artificial biofilm assay; assay type: cell-based, Streptococcus mutans; settings: 5 mg/ml, 1 hour treatment
Protocol: (§2) Artificial biofilm assays were performed based on the method of Alviano et al. (2008). Non-stimulated saliva was collected from a healthy donor and 20 μL was placed on sterile 0.22 μm Millipore membrane disks of 13 mm diameter, previously placed over BHI agar plates. Plates were incubated for 48 hours at 37° C. After biofilm growth, the disks were collected and each disk was placed inside a bottle containing 3 ml of stem extract (5 mg/ml or 10 mg/ml in ethanol), Milli-Q distilled water or ethanol for 1 hour at 37° C. with gentle shaking. Then, the disks were briefly washed with Milli-Q distilled water to remove the plant extract and unbound bacterial cells, and the biofilm was extracted by vortexing the disks in 1 ml of BHI broth. Immediately, serial dilutions were performed and 100 μL of each dilution were spread on BHI agar. The plates were incubated in candle jars for 48 hours at 37° C. and a viable count was performed. An S. mutans artificial biofilm assay was performed by repeating the above method except that a pure ON culture of S. mutans was grown on the membrane disks instead of salivary bacteria. Both this assay and the salivary assay were performed in duplicate.

[1] = system: Streptococcus mutans (969); assay: Plate-hole and disk diffusion assays; assay type: cell-based; settings: S. mutans, 2 mg/ml positive control, mean +/- SD of three plate-hole and three disk diffusion assays
Protocol: as §1

[2] = system: salivary bacteria biofilm; assay: Salivary bacteria artificial biofilm assay; assay type: cell-based, human; settings: 5 mg/ml, 1 hour treatment
Protocol: as §2

[3] = system: Serratia marcescens - antibiotic-susceptible clinical isolate; assay: MIC by CLSI microbroth dilution; assay type: cell-based; settings: isolate GN08
Protocol: (§3) A study was carried out to determine the minimum inhibitory concentration (MIC) for Emubush extract and a comparator against a panel of isolates using Clinical and Laboratory Standards Institute (CLSI) broth methodology.
(§4) The Emubush extract was prepared by dissolving 95.2 mg in ethanol. The solvent was then evaporated off and the material re-dissolved in ethanol at room temperature.
(§5) MIC was determined by microbroth dilution following CLSI methodology. [CLSI Methods for Dilution Antimicrobial Susceptibility Tests for Bacteria That Grow Aerobically; Approved Standard-Eighth Edition. CLSI Document M07-A8. CLSI, Wayne, Pa. 19087-1898, USA, 2009].

[4] = system: Staphylococcus epidermidis - antibiotic susceptible clinical isolate; assay: MIC by CLSI microbroth dilution; assay type: cell-based; settings: isolate GP7
Protocol: as §3, §4, §5

[5] = system: Stenotrophomonas maltophilia - antibiotic-susceptible clinical isolate; assay: MIC by CLSI microbroth dilution; assay type: cell-based; settings: isolate GN12
Protocol: as §3, §4, §5

[6] = system: Staphylococcus aureus - methicillin-resistant clinical isolate; assay: MIC by CLSI microbroth dilution; assay type: cell-based; settings: isolate GP4
Protocol: as §3, §4, §5

[7] = system: Pseudomonas aeruginosa - multi-drug resistant clinical isolate; assay: MIC by CLSI microbroth dilution; assay type: cell-based; settings: isolate GN11
Protocol: as §3, §4, §5

[8] = system: Staphylococcus aureus ATCC 43300 - methicillin-resistant type strain; assay: MIC by CLSI microbroth dilution; assay type: cell-based; settings: ATCC43300, isolate GP3
Protocol: as §3, §4, §5

[9] = system: Staphylococcus epidermidis - methicillin-resistant clinical isolate; assay: MIC by CLSI microbroth dilution; assay type: cell-based; settings: isolate GP8
Protocol: as §3, §4, §5

[10] = system: Streptococcus pneumoniae - multi-drug resistant clinical isolate; assay: MIC by CLSI microbroth dilution; assay type: cell-based; settings: isolate GP24
Protocol: as §3, §4, §5

[11] = system: Serratia marcescens - multi-drug resistant clinical isolate; assay: MIC by CLSI microbroth dilution; assay type: cell-based; settings: isolate GN09
Protocol: as §3, §4, §5

[12] = system: Burkholderia cepacia - antibiotic-susceptible clinical isolate; assay: MIC by CLSI microbroth dilution; assay type: cell-based; settings: isolate GN14
Protocol: as §3, §4, §5

[13] = system: Streptococcus pyogenes - antibiotic-susceptible clinical isolate; assay: MIC by CLSI microbroth dilution; assay type: cell-based; settings: isolate GP59
Protocol: as §3, §4, §5

[14] = system: Staphylococcus aureus ATCC 29213 - antibiotic-susceptible type strain; assay: MIC by CLSI microbroth dilution; assay type: cell-based; settings: ATCC29213, isolate GP1
Protocol: as §3, §4, §5

[15] = system: Stenotrophomonas maltophila - antibiotic-resistant clinical isolate; assay: MIC by CLSI microbroth dilution; assay type: cell-based, Stenotrophomonas maltophilia; settings: Stenotrophomonas sp. LMG 10879; isolate GN13
Protocol: as §3, §4, §5

[16] = system: a selection of Streptococcus species; settings: isolated active compound; Hu et al., 2000; cited from earlier work

Structure (SMILES): [H]/N=C(\N/C(=N/[H])NCCCCCCNC(=N)NC(=N)Nc1ccc(Cl)cc1)Nc1ccc(Cl)cc1 [Chlorhexidine, chlorhexidine]
- mean diameter of the growth inhibition zone (S. sobrinus (6715-247)): 20.5 +/− 0.6 mm
- mean diameter of the growth inhibition zone (S. sobrinus (6715-247); listed as chlorhexidine): 20.5+/−0.6 mm
- reduction in viable biofilm cells (S. mutans biofilm): greatest reduction in viable biofilm bacteria
- mean diameter of the growth inhibition zone [1]: 22.1 +/− 0.6 mm
- mean diameter of the growth inhibition zone ([1]; listed as chlorhexidine): 22.1+/−0.6 mm
- reduction in viable biofilm cells [2]: greatest reduction in viable biofilm bacteria

- MIC [3]: 0.06 µg/mL (≈ 0.166 µM)
- MIC [4]: 0.12 µg/mL (≈ 0.332 µM)
- MIC [5]: 0.12 µg/mL (≈ 0.332 µM)
- MIC [6]: 0.12 µg/mL (≈ 0.332 µM)
- MIC [7]: 4 µg/mL (≈ 11.1 µM)
- MIC [8]: 0.12 µg/mL (≈ 0.332 µM)
- MIC [9]: 0.12 µg/mL (≈ 0.332 µM)
- MIC [10]: 1 µg/mL (≈ 2.77 µM)
- MIC [11]: 2 µg/mL (≈ 5.53 µM)
- MIC [12]: 1 µg/mL (≈ 2.77 µM)
- MIC [13]: 0.5 µg/mL (≈ 1.38 µM)
- MIC [14]: 0.25 µg/mL (≈ 0.692 µM)
- MIC [15]: 2 µg/mL (≈ 5.53 µM)
Structure (SMILES): C[C@H]1COc2c(N3CCN(C)CC3)c(F)cc3c(=O)c(C(=O)O)cn1c23 [Levofloxacin]

Structure (SMILES): COc1ccc2cc3[n+](cc2c1OC)CCc1cc2c(cc1-3)OCO2 [berberine]
- MIC [16]: 13 to 20 µg/mL
